Among the data in patent US7595327B2, “Beta-sulfonamide hydroxamic acid inhibitors of tace/matrix metalloproteinase” (priority 2005, dated 2009) are IC50 values, retold here.

The target of assay [1] is T1, TACE (catalytic domain of the recombinant TACE protein) (Homo sapiens, UniProt P78536).
T1 construct: The catalytic domain of the recombinant TACE protein was expressed and purified; made in house
The assay can be described thus: TACE FRET assay using TACE Cat. The assay is classed as biochemical. As to conditions: FRET, pro-TNF-α substrate peptide; read-out: TACE IC50. An outline of the steps:
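Recombinant TACE catalytic domain (1 ug/ml) pre-incubated 10 min at room temperature with inhibitor in 50 mM Tris-HCl pH 7.4, 25 mM NaCl, 4% glycerol, 0.005% Brij 35; Abz/Dpa pro-TNF-α peptide substrate added, fluorescence (Ex 320/Em 420) followed 10 min; IC50 from initial rates by Hill fit.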

The target of assay [2] is T2, recombinant human MMP-9 (Homo sapiens, UniProt P14780).
T2 construct: purchased Calbiochem PF024
T2 sequence (P14780 107-707 limits assumed): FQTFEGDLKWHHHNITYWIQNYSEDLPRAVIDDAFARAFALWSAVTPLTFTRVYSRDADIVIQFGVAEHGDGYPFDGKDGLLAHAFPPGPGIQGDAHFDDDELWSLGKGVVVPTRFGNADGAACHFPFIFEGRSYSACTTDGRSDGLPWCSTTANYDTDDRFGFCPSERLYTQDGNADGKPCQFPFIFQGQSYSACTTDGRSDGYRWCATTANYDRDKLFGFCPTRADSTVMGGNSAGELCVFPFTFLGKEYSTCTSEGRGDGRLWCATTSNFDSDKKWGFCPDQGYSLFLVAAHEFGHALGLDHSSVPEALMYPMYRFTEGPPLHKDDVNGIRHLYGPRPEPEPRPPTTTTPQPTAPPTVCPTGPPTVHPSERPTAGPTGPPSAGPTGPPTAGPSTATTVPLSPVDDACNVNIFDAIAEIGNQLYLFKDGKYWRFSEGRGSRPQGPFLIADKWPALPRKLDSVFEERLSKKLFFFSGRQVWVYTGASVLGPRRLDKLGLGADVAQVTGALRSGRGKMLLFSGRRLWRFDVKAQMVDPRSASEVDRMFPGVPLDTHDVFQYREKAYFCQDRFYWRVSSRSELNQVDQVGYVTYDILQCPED
Description: In-vitro fluorescence assay of MMP-9 activity. The format is biochemical. How it is done: The method was similar to that for the determination of MMP-1 activity, described above, with the following differences. Active, recombinant human MMP-7 was purchased from Calbiochem (catalog #444270; expressed in E. coli, 19 kDa). […] The concentration of the substrate stock was spectrophotometrically determined using the extinction coefficient at 410 nm of 7500 M^−1 cm^−1. The assay buffer (pH 7.4) consisted of 50 mM Hepes, 100 mM NaCl, 5 mM CaCI2, and 0.005% Brij-35. […] The plates were then incubated at room temperature for 30 minutes. The enzymatic reactions were initiated by adding substrate to a final concentration of 15 μM and were mixed by pipelting up and down. The final DMSO concentration in the assay was 10% and the final, total assay volume was 200 μl. […].
The method was essentially the same as for the determination of MMP-7 activity, described above, except that the source of enzyme in the assay was recombinant human MMP-9 (83 kDa) was purchased from Calbiochem (catalog #PF024), the final enzyme concentration was 0.5-1.0 nM, and the final substrate concentration was 20 μM.

As a reminder, the IC50 is the concentration that inhibits the measured activity by half.

T1 sequence (P78536 223-474 limits assumed): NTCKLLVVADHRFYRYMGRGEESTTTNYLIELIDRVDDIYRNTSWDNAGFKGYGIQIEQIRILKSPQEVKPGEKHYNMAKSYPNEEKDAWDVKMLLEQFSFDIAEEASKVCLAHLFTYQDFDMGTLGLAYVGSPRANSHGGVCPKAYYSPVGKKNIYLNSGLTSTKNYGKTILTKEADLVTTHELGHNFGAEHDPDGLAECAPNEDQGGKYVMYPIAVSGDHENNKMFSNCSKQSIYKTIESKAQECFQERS

As for `Cc1cc(COc2ccc(S(=O)(=O)N[C@@H]3CN(S(C)(=O)=O)C[C@@H]3C(=O)NO)cc2)c2ccccc2n1` (relative stereo) [Example 17, cis-N-Hydroxy-4-[({4-[(2-methylquinolin-4-yl)methoxy]phenyl}sulfonyl)amino]-1-(methylsulfonyl) pyrrolidine-3-carboxamide], the IC50 was 0.6 nM in assay [1] and greater than 16700 nM in assay [2].
On the same counts, the results for `Cc1cc(COc2ccc(S(=O)(=O)N[C@@H]3CN(C=O)C[C@@H]3C(=O)NO)cc2)c2ccccc2n1` (relative stereo) [Example 20, cis-1-Formyl-N-hydroxy-4-[({4-[(2-methylquinolin-4-yl)methoxy]phenyl}sulfonyl)amino]pyrrolidine-3-carboxamide] are 1.1 nM and greater than 16700 nM.
As for `CCNC(=O)N1C[C@H](C(=O)NO)[C@H](NS(=O)(=O)c2ccc(OCc3cc(C)nc4ccccc34)cc2)C1` (relative stereo) [Example 23, cis-1-Ethyl-N-hydroxy-4-[({4-[(2-methylquinolin-4-yl)methoxy]phenyl}sulfonyl)amino]pyrrolidine-1,3-dicarboxamide], the IC50 is 1.3 nM in assay [1] and greater than 16700 nM in assay [2].
The matching figures for `Cc1cc(COc2ccc(S(=O)(=O)N[C@H]3COC[C@H]3C(=O)NO)cc2)c2ccccc2n1` (stereo in doubt) [Example 26, (3S,4R)-4-[4-(2-Methyl-quinolin-4-ylmethoxy)-benzenesulfonylamino]-tetrahydro-furan-3-carboxylic acid hydroxyamide]: 0.6 nM and greater than 16700 nM.
On the same counts, the results for `Cc1cc(COc2ccc(S(=O)(=O)N[C@@H]3CCC[C@@H]3C(=O)NO)cc2)c2ccccc2n1` [Example 13, (1S,2R)-N-Hydroxy-2-[({4-[(2-methylquinolin-4-yl)methoxy]phenyl}sulfonyl)amino]cyclopentanecarboxamide] are less than 0.6 nM and greater than 16700 nM.
`Cc1cc(COc2ccc(S(=O)(=O)N[C@@H]3CN(C(=O)NC(C)(C)C)CC[C@@H]3C(=O)NO)cc2)c2ccccc2n1` [Example 35, 3-[4-(2-Methyl-quinolin4-ylmethoxy)-benzenesulfonylamino]-piperidine-1,4-dicarboxylic acid 1-tert-butylamide 4-hydroxyamide]: the results for the concentration for half-maximal inhibition (IC50) in assay [1] and in assay [2] were 1.4 nM and greater than 16700 nM, respectively.
